Source: the NIST ThermoML archive (doi:10.1016/j.jct.2011.01.014)

Experiment: xn = mol fraction of the nth substance listed
Conditions: 101 kPa, Liquid; for speed of sound: sound velocity cell; for mass density: Vibrating tube method

CC(=O)[O-].[NH3+]CCO [2-hydroxyethylammonium acetate] + CCO
Conditions	mass density, 298.15 K [kg/m3]	mass density, 300.65 K [kg/m3]	mass density, 303.15 K [kg/m3]	mass density, 305.65 K [kg/m3]	speed of sound, 295.65 K [m/s]	speed of sound, 298.15 K [m/s]	speed of sound, 300.65 K [m/s]	speed of sound, 303.15 K [m/s]
x1 = 0.0497	821.798	819.712	817.614	815.509	–	1186.5	1178.2	1170
x1 = 0.101	854.902	852.887	850.864	848.835	–	1225.5	1217.5	1209.5
x1 = 0.201	909.701	907.8	905.897	903.988	–	1296.4	1288.8	1281.2
x1 = 0.3009	956.936	955.132	953.327	951.519	–	1381.3	1374.2	1367
x1 = 0.4057	999.015	997.306	995.593	993.881	–	1442.3	1435.3	1428.4
x1 = 0.4946	1029.72	1028.07	1026.43	1024.78	–	1502.9	1496.2	1489.6
x1 = 0.603	1062.53	1060.96	1059.37	1057.78	1582	1575.6	1569.2	1562.8
x1 = 0.6765	1082.31	1080.8	1079.28	1077.76	1626.8	1620.4	1614.2	1608
x1 = 0.7918	1110.26	1108.76	1107.26	1105.75	1686.5	1679.8	1673.3	1667
x1 = 0.8825	1129.61	1128.15	1126.69	1125.23	1734.5	1727.5	1720.9	1714.5
x1 = 0.9539	1142.5	1141.04	1139.62	1138.2	1778	1769.9	1762.4	1755.4
x1 = 1	1149.04	1147.63	1146.22	1144.8	1796.8	1790.7	1784.8	1779
